Measured values reported in patent publication US10039839B2, “Compounds that participate in cooperative binding and uses thereof” (Warp Drive Bio, Inc., priority 2015, dated 2018).
Square brackets hold non-standard residues; d marks the D form. Peptide text beside a SMILES is read from it. MeBmt = C/C=C/C[C@@H](C)[C@@H](O)[C@H](NC)C(=O)O; NMepY = CN[C@@H](Cc1ccc(OP(=O)(O)O)cc1)C(=O)O; NMeF = CN[C@@H](Cc1ccccc1)C(=O)O; NMeL = CN[C@@H](CC(C)C)C(=O)O; NMeV = CN[C@H](C(=O)O)C(C)C; Abu = CC[C@H](N)C(=O)O; Sar = CNCC(=O)O

Experiments:
HeLa-Cyclophilin A cells = test: Biosensor cell permeability assay, cyclophilin binding compounds; format: cell-based; conditions: 72 hrs
Experimental: This protocol utilizes a modified FKBP or cyclophilin destabilizing mutant to determine the bioactivity of FKBP binding compounds or cyclophilin binding compounds in whole cell assay.
Plate HeLa-FKBP12 cells (for FKBP binding compounds) or HeLa-Cyclophilin A cells (for cyclophilin binding compounds) and seed overnight at 5 k/well (approximately ˜18 hrs.). Using a multi-channel pipet, take out the old media and add ˜125 ul of new media with compounds. Compounds are diluted using DMEM without Phenol Red, 10% FBS, 1× Sodium Pyruvate, 1× Glutamax. Add 125 ul of media with compound per well.
Cell binding/permeability is calculated in fold-change (Total RFU of treated samples/total RFU of DMSO treated samples or total RFU above background (Total RFU minus total RFU of DMSO treated samples).

Cyclophilin A = target: T1, Cyclophilin A (Homo sapiens, UniProt P62937); test: biochemical; format: binding
T1 construct: made in house
T1 sequence (P62937 whole entry, species assumed): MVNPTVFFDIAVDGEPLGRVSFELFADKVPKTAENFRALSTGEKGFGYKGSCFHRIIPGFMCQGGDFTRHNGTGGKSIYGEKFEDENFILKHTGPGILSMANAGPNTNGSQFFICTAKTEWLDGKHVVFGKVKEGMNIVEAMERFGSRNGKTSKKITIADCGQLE
Experimental: This protocol utilizes Perkin Elmers AlphaLISA technology platform to detect cyclosporine analogues by measuring the inhibition of binding of biotinylated Cyclosporin A to FLAG tagged Cyclophilin A.
Add 20 uL of 6 nM Biotinylated CsA working stock to each well of the 96-well plate. Add 1 uL of test compound (100% DMSO) to each well of the plate using the Janus MTD head and P20 tips (except control wells). Add 1 uL of DMSO to negative control wells and 1 uL of 500 uM Cyclosporin A solution to positive control wells. In the dark, add 20 uL of combined Donor/Acceptor beads to each well. Incubate in the dark for 30 minutes at room temperature. […] Incubate in the dark for 60 minutes at room temperature.

Structure (SMILES) | IC50 (HeLa-Cyclophilin A cells) | IC50 (Cyclophilin A)
C/C=C/C[C@@H](C)[C@@H](O)[C@H]1C(=O)N[C@@H](CC)C(=O)N(C)CC(=O)N(C)[C@@H](Cc2ccccc2)C(=O)N[C@@H](C(C)C)C(=O)N(C)[C@@H](CC(C)C)C(=O)N[C@@H](C)C(=O)N[C@H](C)C(=O)N(C)[C@@H](CC(C)C)C(=O)N(C)[C@@H](CC(C)C)C(=O)N(C)[C@@H](C(C)C)C(=O)N1C [C36] (cyclo([MeBmt][Abu][Sar][NMeF]V[NMeL]A[dA][NMeL][NMeL][NMeV])) | < 3 µM | 
C/C=C/C[C@@H](C)[C@@H](O)[C@H]1C(=O)N[C@@H](CC)C(=O)N(C)CC(=O)N(C)[C@@H](C(C)C)C(=O)N[C@@H](C(C)C)C(=O)N(C)[C@@H](CC(C)C)C(=O)N[C@@H](C)C(=O)N[C@H](C)C(=O)N(C)[C@@H](CC(C)C)C(=O)N(C)[C@@H](CC(C)C)C(=O)N(C)[C@@H](C(C)C)C(=O)N1C [C40] (cyclo([MeBmt][Abu][Sar][NMeV]V[NMeL]A[dA][NMeL][NMeL][NMeV])) | < 3 µM | < 2 µM
C/C=C/C[C@@H](C)[C@@H](O)[C@H]1C(=O)N[C@@H](CC)C(=O)N(C)CC(=O)N(C)[C@@H](Cc2ccc(OP(=O)(O)O)cc2)C(=O)N[C@@H](C(C)C)C(=O)N(C)[C@@H](CC(C)C)C(=O)N[C@@H](C)C(=O)N[C@H](C)C(=O)N(C)[C@@H](CC(C)C)C(=O)N(C)[C@@H](CC(C)C)C(=O)N(C)[C@@H](C(C)C)C(=O)N1C [C41] (cyclo([MeBmt][Abu][Sar][NMepY]V[NMeL]A[dA][NMeL][NMeL][NMeV])) | > 3 µM | < 2 µM
